Reference: patent publication US4652547A (Eli Lilly and Company, priority 1984, dated 1987)
Read-outs that look alike come from different tables or passages of the source.

What was measured:
hepatic glucose output = assay: Euglycemic glucose-clamp studies: suppression of hepatic glucose output; format: in vivo, human
Description: J. Physiol. 237:E214-E223 (1979). With this technique, an antecubital vein is cannulated in an antegrade manner to administer the infusates. A dorsal hand vein is cannulated in a retrograde fashion and kept in a warming device (70° C.) to facilitate venous sampling and provide arterialized venous blood. After insertion of the catheters, [3--3H]-glucose is infused for at least 30 minutes before initiating the hormone infusion. At the onset of hormone infusion, a priming dose of either insulin or proinsulin is administered during the initial 10 minutes in a logarithmically decreasing manner to acutely raise the serum hormone level. […] The overall glucose disposal rate is assessed isotopically for each 20 minute interval of the study.
(§1) Each subject underwent a total of 8 euglycemic glucose clamp studies, each performed on a separate day. […] Hepatic glucose output was quantitated in the basal state and during each clamp study using a primed continuous infusion of [3--3H]glucose. […] The dose response relationship for insulin and proinsulinmediated suppression of hepatic glucose output was determined by calculating the percent suppression of basal hepatic glucose output at each steady state hormone concentration obtained during the euglycemic clamp studies.

[1] = Hormone activity used for dosing; settings: basis for administered amounts
[2] = tested on: hepatic glucose production; assay: Subcutaneous administration to Type II subjects: hepatic glucose production; format: in vivo, human; settings: 0.2 U/kg s.c.
[3] = Description: (§2) At this point, the hormone infusion was abruptly stopped, and the glucose concentration was maintained constant until the biologic effects of the infused hormone were no longer detectable.
[4] = tested on: insulin-degrading proteases; settings: proteases at subcutaneous injection site of certain diabetics
glucose disposal = assay: Euglycemic glucose-clamp studies: glucose disposal; format: in vivo, human
Description: Ten healthy control subjects (five female and five male) ranging in age from 25-40 years (mean age=29±3 years) with mean relative body weights of 0.96+0.02 were used.
With this technique, an antecubital vein is cannulated in an antegrade manner to administer the infusates. A dorsal hand vein is cannulated in a retrograde fashion and kept in a warming device (70° C.) to facilitate venous sampling and provide arterialized venous blood. After insertion of the catheters, [3--3H]-glucose is infused for at least 30 minutes before initiating the hormone infusion. At the onset of hormone infusion, a priming dose of either insulin or proinsulin is administered during the initial 10 minutes in a logarithmically decreasing manner to acutely raise the serum hormone level. The amount of insulin or proinsulin given during this initial 10 minute period is roughly twice that given during each subsequent 10 minute interval by a continuous hormone infusion. […] The overall glucose disposal rate is assessed isotopically for each 20 minute interval of the study.
On one day, each subject received a 5.0 μg/M2/min (120 mU/M2/min) insulin infusion over a 6 hour period. […] Each proinsulin infusion was carried out for 300 minutes, with the quantitation of its biological effects based on measurements made during the 5th hour of each study. […]

[5] = tested on: peripheral glucose uptake; assay: Kinetics of activation and deactivation: peripheral glucose uptake; format: in vivo, human
Description: Marked differences between the two hormones were noted when biologic activity was studied.
as §2

plasma glucose = assay: Response of fasting Type II diabetic patients: plasma glucose and hypoglycemia; settings: 0.2 U/kg s.c.
fat cells = settings: e.g. fat cells; cited from earlier work
HGO = tested on: HGO
Description: For example, in non-insulin dependent diabetes mellitus (NIDDM), one of the major metabolic abnormalities that maintains the resultant hyperglycemic state is accelerated hepatic glucose production.

[6] = remark: listed apart in the source
Description: J. Physiol. 237:E214-E223 (1979). With this technique, an antecubital vein is cannulated in an antegrade manner to administer the infusates. A dorsal hand vein is cannulated in a retrograde fashion and kept in a warming device (70° C.) to facilitate venous sampling and provide arterialized venous blood. After insertion of the catheters, [3--3H]-glucose is infused for at least 30 minutes before initiating the hormone infusion. At the onset of hormone infusion, a priming dose of either insulin or proinsulin is administered during the initial 10 minutes in a logarithmically decreasing manner to acutely raise the serum hormone level. The amount of insulin or proinsulin given during this initial 10 minute period is roughly twice that given during each subsequent 10 minute interval by a continuous hormone infusion. The serum glucose is maintained between 80 and 90 mg/dl throughout the study period with a coefficient of variation of less than 5% by means of a variable rate of infusion of 20% dextrose. The overall glucose disposal rate is assessed isotopically for each 20 minute interval of the study.
as §1, with “day. Insulin infusion rates of 15, 40, 120, and 240 mU/M2/min were utilized to construct a dose response curve for insulin action. With this approach an attempt was made to achieve steady state insulin concentrations of 40 to 800 μU/ml (Table 1). Each subject was also studied with four different proinsulin infusions.” for “day.”

[7] = 0.2 U/kg s.c., five Type II subjects
[8] = tested on: hepatic glucose output (HGO); assay: Kinetics of activation and deactivation: hepatic glucose output (HGO); format: in vivo, human
Description: as §2

[9] = Study A: insulin 15 mU/M^2/min, proinsulin 2.75 μg/M^2/min

Substance: human proinsulin
- Suppression of Hepatic Glucose Output (Mean ± SE) (hepatic glucose output; [9]): 80 ± 6%
- Hormone concentration required to achieve 90% suppression of hepatic glucose output (hepatic glucose output; steady state serum concentration, euglycemic clamp): 3.35 pmol/mL
- Hormone activity [1]: 4 IU/mg
- Effect on hepatic glucose production [2]: suppressed into the normal range
- Time of maximum suppression of hepatic glucose production [2]: 264 ± 31 min
- Minimum hepatic glucose production ([2]; basal 3.83±0.6): 1.21 ± 0.2 mg/kg/min
- t 1/2 of clearance from the circulation ([3]; after stopping 5 hour infusion (human insulin 0.55, human proinsulin 2.75 μg/M^2/min)): 0.333 h
- Time by which hormone concentrations are below biologically effective values ([3]; after stopping infusion): ≤ 90 minutes
- Initial volume of distribution compared to human insulin ([3]; primed continuous infusion): much greater
- Time to steady state hormone concentration ([3]; primed continuous infusion): 90 to 120 min
- Time of initial peak of hormone concentration ([3]; primed continuous infusion, all infusion rates): no initial peak of hormone concentration was observed
- Degradation by insulin-degrading proteases [4]: not degraded
- Time to reach steady state rates of glucose disposal (glucose disposal; 5 subjects, insulin 5.0 μg/M2/min over 6 hours, proinsulin 22.5 μg/M2/min over 8 hours): ≤ 5 h
- Glucose Disposal Rate (Mean ± SE) (glucose disposal; [9]): 122 ± 11 mg/M^2/min
- t 1/2 of deactivation of effects on glucose disposal ([5]; after stopping 5 hour infusion): 1.45 ± 0.233 h
- Decay of effect to stimulate glucose disposal, times more slowly than human insulin ([5]; after stopping infusion): 2.2 times
- Time for glucose disposal rates to return to basal ([5]; following cessation of infusion): 160 min
- Time for effect to stimulate glucose disposal to reach steady state ([5]; hormone infusion): > 5 h
- Blood glucose level to which each subject was lowered (plasma glucose; five fasting Type II subjects): 80 to 110 mg/dL
- Plasma Glucose (plasma glucose; Mean of subjects (mean total dose 18.7 I.U.), 0 min after injection): 245 mg/dL
- Plasma Glucose (plasma glucose; Mean of subjects (mean total dose 18.7 I.U.), 40 min after injection): 235 mg/dL
- Plasma Glucose (plasma glucose; Mean of subjects (mean total dose 18.7 I.U.), 80 min after injection): 221 mg/dL
- Plasma Glucose (plasma glucose; Mean of subjects (mean total dose 18.7 I.U.), 120 min after injection): 205 mg/dL
- Plasma Glucose (plasma glucose; Mean of subjects (mean total dose 18.7 I.U.), 160 min after injection): 188 mg/dL
- Plasma Glucose (plasma glucose; Mean of subjects (mean total dose 18.7 I.U.), 200 min after injection): 167 mg/dL
- Plasma Glucose (plasma glucose; Mean of subjects (mean total dose 18.7 I.U.), 280 min after injection): 129 mg/dL
- Plasma Glucose (plasma glucose; Mean of subjects (mean total dose 18.7 I.U.), 300 min after injection): 113 mg/dL
- Plasma Glucose (plasma glucose; Mean of subjects (mean total dose 18.7 I.U.), 360 min after injection): 102 mg/dL
- Plasma Glucose (plasma glucose; Mean of subjects (mean total dose 18.7 I.U.), 400 min after injection): 95 mg/dL
- Plasma Glucose (plasma glucose; Mean of subjects (mean total dose 18.7 I.U.), 440 min after injection): 92 mg/dL
- Plasma Glucose (plasma glucose; Mean of subjects (mean total dose 18.7 I.U.), 480 min after injection): 96 mg/dL
- Plasma Glucose (plasma glucose; subject (total dose 15.0 I.U.), 0 min after injection): 332 mg/dL
- Plasma Glucose (plasma glucose; subject (total dose 15.0 I.U.), 40 min after injection): 328 mg/dL
- Plasma Glucose (plasma glucose; subject (total dose 15.0 I.U.), 80 min after injection): 308 mg/dL
- Plasma Glucose (plasma glucose; subject (total dose 15.0 I.U.), 120 min after injection): 288 mg/dL
- Plasma Glucose (plasma glucose; subject (total dose 15.0 I.U.), 160 min after injection): 272 mg/dL
- Plasma Glucose (plasma glucose; subject (total dose 15.0 I.U.), 200 min after injection): 247 mg/dL
- Plasma Glucose (plasma glucose; subject (total dose 15.0 I.U.), 240 min after injection): 210 mg/dL
- Plasma Glucose (plasma glucose; subject (total dose 15.0 I.U.), 280 min after injection): 174 mg/dL
- Plasma Glucose (plasma glucose; subject (total dose 15.0 I.U.), 360 min after injection): 94 mg/dL
- Plasma Glucose (plasma glucose; subject four (total dose 27.2 I.U.), 0 min after injection): 159 mg/dL
- Plasma Glucose (plasma glucose; subject four (total dose 27.2 I.U.), 40 min after injection): 144 mg/dL
- Plasma Glucose (plasma glucose; subject four (total dose 27.2 I.U.), 120 min after injection): 128 mg/dL
- Plasma Glucose (plasma glucose; subject four (total dose 27.2 I.U.), 200 min after injection): 110 mg/dL
- Plasma Glucose (plasma glucose; subject four (total dose 27.2 I.U.), 240 min after injection): 101 mg/dL
- Plasma Glucose (plasma glucose; subject four (total dose 27.2 I.U.), 280 min after injection): 98 mg/dL
- Plasma Glucose (plasma glucose; subject four (total dose 27.2 I.U.), 300 min after injection): 88 mg/dL
- Plasma Glucose (plasma glucose; subject four (total dose 27.2 I.U.), 360 min after injection): 84 mg/dL
- Plasma Glucose (plasma glucose; subject four (total dose 27.2 I.U.), 400 min after injection): 85 mg/dL
- Plasma Glucose (plasma glucose; subject four (total dose 27.2 I.U.), 440 min after injection): 86 mg/dL
- Plasma Glucose (plasma glucose; subject four (total dose 27.2 I.U.), 480 min after injection): 88 mg/dL
- Plasma Glucose (plasma glucose; subject one (total dose 14.8 I.U.), 0 min after injection): 213 mg/dL
- Plasma Glucose (plasma glucose; subject one (total dose 14.8 I.U.), 40 min after injection): 203 mg/dL
- Plasma Glucose (plasma glucose; subject one (total dose 14.8 I.U.), 80 min after injection): 187 mg/dL
- Plasma Glucose (plasma glucose; subject one (total dose 14.8 I.U.), 160 min after injection): 140 mg/dL
- Plasma Glucose (plasma glucose; subject one (total dose 14.8 I.U.), 240 min after injection): 81 mg/dL
- Plasma Glucose (plasma glucose; subject one (total dose 14.8 I.U.), 280 min after injection): 77 mg/dL
- Plasma Glucose (plasma glucose; subject one (total dose 14.8 I.U.), 300 min after injection): 80 mg/dL
- Plasma Glucose (plasma glucose; subject one (total dose 14.8 I.U.), 320 min after injection): 80 mg/dL
- Plasma Glucose (plasma glucose; subject three (total dose 16.3 I.U.), 0 min after injection): 290 mg/dL
- Plasma Glucose (plasma glucose; subject three (total dose 16.3 I.U.), 40 min after injection): 282 mg/dL
- Plasma Glucose (plasma glucose; subject three (total dose 16.3 I.U.), 80 min after injection): 272 mg/dL
- Plasma Glucose (plasma glucose; subject three (total dose 16.3 I.U.), 120 min after injection): 250 mg/dL
- Plasma Glucose (plasma glucose; subject three (total dose 16.3 I.U.), 160 min after injection): 230 mg/dL
- Plasma Glucose (plasma glucose; subject three (total dose 16.3 I.U.), 200 min after injection): 200 mg/dL
- Plasma Glucose (plasma glucose; subject three (total dose 16.3 I.U.), 240 min after injection): 183 mg/dL
- Plasma Glucose (plasma glucose; subject three (total dose 16.3 I.U.), 280 min after injection): 152 mg/dL
- Plasma Glucose (plasma glucose; subject three (total dose 16.3 I.U.), 300 min after injection): 127 mg/dL
- Plasma Glucose (plasma glucose; subject three (total dose 16.3 I.U.), 360 min after injection): 101 mg/dL
- Plasma Glucose (plasma glucose; subject three (total dose 16.3 I.U.), 400 min after injection): 82 mg/dL
- Plasma Glucose (plasma glucose; subject three (total dose 16.3 I.U.), 440 min after injection): 77 mg/dL
- Plasma Glucose (plasma glucose; subject two (total dose 20.0 I.U.), 0 min after injection): 231 mg/dL
- Plasma Glucose (plasma glucose; subject two (total dose 20.0 I.U.), 40 min after injection): 217 mg/dL
- Plasma Glucose (plasma glucose; subject two (total dose 20.0 I.U.), 80 min after injection): 201 mg/dL
- Plasma Glucose (plasma glucose; subject two (total dose 20.0 I.U.), 120 min after injection): 191 mg/dL
- Plasma Glucose (plasma glucose; subject two (total dose 20.0 I.U.), 160 min after injection): 182 mg/dL
- Plasma Glucose (plasma glucose; subject two (total dose 20.0 I.U.), 240 min after injection): 164 mg/dL
- Plasma Glucose (plasma glucose; subject two (total dose 20.0 I.U.), 280 min after injection): 143 mg/dL
- Plasma Glucose (plasma glucose; subject two (total dose 20.0 I.U.), 300 min after injection): 134 mg/dL
- Plasma Glucose (plasma glucose; subject two (total dose 20.0 I.U.), 360 min after injection): 128 mg/dL
- Plasma Glucose (plasma glucose; subject two (total dose 20.0 I.U.), 400 min after injection): 117 mg/dL
- Plasma Glucose (plasma glucose; subject two (total dose 20.0 I.U.), 440 min after injection): 112 mg/dL
- Plasma Glucose (plasma glucose; subject two (total dose 20.0 I.U.), 480 min after injection): 104 mg/dL
- Plasma Glucose (plasma glucose; subject two (total dose 20.0 I.U.), 500 min after injection): 100 mg/dL
- Internalization into target tissues (fat cells): internalized into target tissues
- Expected suppression of HGO (HGO; NIDDM subjects, circulating concentration approximately 1.5 2 pmol/ml): approximately 50%
- Expected duration of adequate glycemic control (HGO; sustained level of 1.5-2 pmol/ml for about 3 hours, CSII or single s.c. injection): 8 to 10 h
- Steady State Hormone Levels (Mean ± SEM) ([6]; infusion A: insulin 0.63 μg/M^2/min, proinsulin 2.75 μg/M^2/min): 2.55 ± 0.16 pmol/mL
- Steady State Hormone Levels (Mean ± SEM) ([6]; infusion B: insulin […]^2/min, proinsulin 7.5 μg/M^2/min): 6.24 ± 0.49 pmol/mL
- Steady State Hormone Levels (Mean ± SEM) ([6]; infusion C: insulin 5.0 μg/M^2/min, proinsulin 22.5 μg/M^2/min): 21.2 ± 1.4 pmol/mL
- Steady State Hormone Levels (Mean ± SEM) ([6]; infusion D: insulin 10.0 μg/M^2/min, proinsulin 45.0 μg/M^2/min): 40.0 ± 1.9 pmol/mL
- Mean peak hormone blood level [7]: 6.8 pmol/mL
- Time of mean peak hormone blood level [7]: 230 ± 33 min
- t 1/2 of deactivation of effect to inhibit HGO ([8]; after stopping 5 hour infusion): 3.83 ± 0.317 h
- Time for HGO to return to baseline values, by extrapolation of the curve ([8]; after stopping infusion): > 6 h
- Time until decline in effect to suppress HGO could be detected ([8]; after stopping infusion): 120 min
